Measured values reported in article PMC3858179 (Journal of medicinal chemistry, 2008).
Like-named read-outs stand apart in the source and are kept apart here.

How the values were obtained:
E. coli TS = E. coli TS (Escherichia coli, UniProt P0A884); test: Inhibition of isolated E. coli TS; assay type: biochemical; conditions: for % inhibition TS E. coli (number in parenthesis): at the concentration given
T. gondii DHFR [1] = molecular target: T1, T. gondii DHFR (Toxoplasma gondii, UniProt Q07422); assay type: biochemical; conditions: 20 compounds jointly assayed, by both protocols (Table 1 and Table 2 conditions)
T1 sequence (Q07422 1-610): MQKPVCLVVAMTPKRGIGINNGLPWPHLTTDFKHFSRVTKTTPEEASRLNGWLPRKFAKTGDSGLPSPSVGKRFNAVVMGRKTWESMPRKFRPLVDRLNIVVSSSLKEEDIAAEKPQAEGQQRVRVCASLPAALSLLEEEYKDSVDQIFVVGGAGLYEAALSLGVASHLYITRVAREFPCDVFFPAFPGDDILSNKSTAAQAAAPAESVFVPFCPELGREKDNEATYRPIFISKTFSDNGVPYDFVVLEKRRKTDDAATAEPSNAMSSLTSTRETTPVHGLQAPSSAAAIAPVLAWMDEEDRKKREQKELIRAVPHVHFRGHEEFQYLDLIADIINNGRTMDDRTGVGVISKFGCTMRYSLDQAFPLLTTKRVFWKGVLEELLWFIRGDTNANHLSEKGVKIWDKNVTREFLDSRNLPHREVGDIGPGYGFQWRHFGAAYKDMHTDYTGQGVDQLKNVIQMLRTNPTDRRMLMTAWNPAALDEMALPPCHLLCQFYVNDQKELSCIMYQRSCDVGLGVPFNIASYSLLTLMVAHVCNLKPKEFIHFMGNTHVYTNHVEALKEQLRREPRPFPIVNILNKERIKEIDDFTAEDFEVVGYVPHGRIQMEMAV

human TS = human TS (Homo sapiens, UniProt P04818); test: Inhibition of isolated human TS; assay type: biochemical
Chain of human TS (P04818 whole entry): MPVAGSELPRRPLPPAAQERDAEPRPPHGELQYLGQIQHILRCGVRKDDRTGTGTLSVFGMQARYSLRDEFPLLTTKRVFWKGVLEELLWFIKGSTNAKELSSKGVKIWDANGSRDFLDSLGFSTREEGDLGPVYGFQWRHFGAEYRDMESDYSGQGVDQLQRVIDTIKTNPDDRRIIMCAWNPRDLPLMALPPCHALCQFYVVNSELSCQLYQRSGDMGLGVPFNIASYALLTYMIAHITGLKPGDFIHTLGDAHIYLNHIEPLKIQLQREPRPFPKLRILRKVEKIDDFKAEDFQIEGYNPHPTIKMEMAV

T. gondii TS = T. gondii TS (Toxoplasma gondii, UniProt Q07422); assay type: biochemical
human DHFR = molecular target: T2, human DHFR (Homo sapiens, UniProt P00374); test: Inhibition of isolated human DHFR; assay type: biochemical
T2 sequence (P00374 1-187): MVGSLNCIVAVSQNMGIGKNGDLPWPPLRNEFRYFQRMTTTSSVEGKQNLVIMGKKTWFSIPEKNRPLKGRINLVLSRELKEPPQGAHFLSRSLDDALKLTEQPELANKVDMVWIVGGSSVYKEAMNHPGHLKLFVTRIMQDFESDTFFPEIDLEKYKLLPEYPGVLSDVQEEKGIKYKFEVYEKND

E. coli DHFR = E. coli DHFR (Escherichia coli, UniProt P0ABQ4); test: Inhibition of isolated E. coli DHFR; assay type: biochemical
Chain of E. coli DHFR (P0ABQ4 whole entry): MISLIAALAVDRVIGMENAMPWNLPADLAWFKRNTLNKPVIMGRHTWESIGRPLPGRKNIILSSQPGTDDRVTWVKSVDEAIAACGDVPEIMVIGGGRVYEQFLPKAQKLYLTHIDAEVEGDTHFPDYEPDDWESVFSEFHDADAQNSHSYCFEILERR

T. gondii DHFR [2] = molecular target: T1, T. gondii DHFR; assay type: biochemical
60 tumor cell lines = test: NCI in vitro preclinical antitumor screening, 60 tumor cell lines; assay type: cell-based
SW-620 = test: NCI tumor cell growth inhibition, SW-620; assay type: cell-based; conditions: Homo sapiens, SW-620, read-out: GI50 SW-620
HCT 15 = test: NCI tumor cell growth inhibition, HCT 15; assay type: cell-based; conditions: Homo sapiens, HCT-15, read-out: GI50 HCT 15
[3] = system: human CCRF-CEM leukemia cells; conditions: read-out: EC50 growth of human CCRF-CEM leukemia cells in culture; cited from earlier work

Chain of E. coli TS (P0A884 whole entry): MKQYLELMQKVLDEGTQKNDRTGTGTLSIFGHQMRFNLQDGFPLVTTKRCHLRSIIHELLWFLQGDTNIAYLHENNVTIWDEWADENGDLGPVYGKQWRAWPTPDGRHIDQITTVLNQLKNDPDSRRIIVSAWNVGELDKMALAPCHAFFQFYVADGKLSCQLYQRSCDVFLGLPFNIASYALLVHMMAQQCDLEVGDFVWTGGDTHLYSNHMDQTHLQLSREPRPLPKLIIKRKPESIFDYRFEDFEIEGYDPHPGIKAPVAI

SMILES	IC50 (E. coli TS) [nM]	% inhibition TS E. coli (number in parenthesis) (E. coli TS) [%]	also measured
COc1ccc(Sc2[nH]c3nc(N)nc(N)c3c2C(C)C)cc1 [Compound 22, 2,4-Diamino-5-isopropyl-6-(4′-methoxyphenylsulfanyl)-7H-pyrrolo[2,3-d]pyrimidine]	> 2500	0	–
CCCc1c(Sc2cc(OC)ccc2OC)[nH]c2nc(N)nc(N)c12 [Compound 15, 2,4-Diamino-5-propyl-6-(2′,5′-dimethoxyphenylsulfanyl)-7H-pyrrolo[2,3-d]pyrimidine]	> 12000	0	–
COc1ccc(Sc2[nH]c3nc(N)nc(N)c3c2C(C)C)cc1OC [Compound 24, 2,4-Diamino-5-isopropyl-6-(3′,4′-dimethoxyphenylsulfanyl)-7H-pyrrolo[2,3-d]pyrimidine]	> 2300	0	potency rank against T. gondii DHFR, in words (T. gondii DHFR [1]): among the six least potent compounds
COc1ccc(OC)c(Sc2[nH]c3nc(N)nc(N)c3c2C(C)C)c1 [Compound 23, 2,4-Diamino-5-isopropyl-6-(2′,5′-dimethoxyphenylsulfanyl)-7H-pyrrolo[2,3-d]pyrimidine]	> 2300	0	potency rank against T. gondii DHFR, in words (T. gondii DHFR [1]): among the six least potent compounds
Cc1cccc(C)c1Sc1[nH]c2nc(N)nc(N)c2c1C(C)C [Compound 20, 2,4-Diamino-5-isopropyl-6-(2′,6′-dimethylphenylsulfanyl)-7H-pyrrolo[2,3-d] pyrimidine]	> 13000	0	–
CC(C)c1c(Sc2ccc(Cl)c(Cl)c2)[nH]c2nc(N)nc(N)c12 [Compound 27, 2,4-Diamino-5-isopropyl-6-(3′,4′-dichlorophenylsulfanyl)-7H-pyrrolo[2,3-d]pyrimidine]	> 2300	0	potency rank against T. gondii DHFR, in words (T. gondii DHFR [1]): among the six least potent compounds
CCCc1c(Sc2ccc3ccccc3c2)[nH]c2nc(N)nc(N)c12 [Compound 18, 2,4-Diamino-5-propyl-6-(2′-napthylsulfanyl)-7H-pyrrolo[2,3-d]pyrimidine]	> 12000	0	–
CCCc1c(Sc2c(C)cccc2C)[nH]c2nc(N)nc(N)c12 [Compound 12, 2,4-Diamino-5-propyl-6-(2′,6′-dimethylphenylsulfanyl)-7H-pyrrolo[2,3-d] pyrimidine]	> 24000	0	–
CCCc1c(Sc2ccc(OC)cc2)[nH]c2nc(N)nc(N)c12 [Compound 14, 2,4-Diamino-5-propyl-6-(4′-methoxyphenylsulfanyl)-7H-pyr-rolo[2,3-d]pyrimidine]	> 13000	0	–
CCCc1c(Sc2ccccc2)[nH]c2nc(N)nc(N)c12 [Compound 13, 2,4-Diamino-5-propyl-6-(phenylsulfanyl)-7H-pyrrolo[2,3-d]py-rimidine]	> 14000	0	–
CC(C)c1c(Sc2ccccc2)[nH]c2nc(N)nc(N)c12 [Compound 21, 2,4-Diamino-5-isopropyl-6-(phenylsulfanyl)-7H-pyrrolo[2,3-d]pyrimidine]	> 2700	0	–
CCCc1c(Sc2c(Cl)cccc2Cl)[nH]c2nc(N)nc(N)c12 [Compound 11, 2,4-Diamino-5-propyl-6-(2′,6′-dichlorophenylsulfanyl)-7H-pyrrolo[2,3-d]pyrimidine]	> 22000	0	–
CC(C)c1c(Sc2cccc3ccccc23)[nH]c2nc(N)nc(N)c12 [Compound 25, 2,4-Diamino-5-isopropyl-6-(1′-napthylsulfanyl)-7H-pyrrolo[2,3-d]pyrimidine]	> 12000	0	–
CCCc1c(Sc2cccc3ccccc23)[nH]c2nc(N)nc(N)c12 [Compound 17, 2,4-Diamino-5-propyl-6-(1′-napthylsulfanyl)-7H-pyrrolo[2,3-d]pyrimidine]	> 12000	0	–
CCCc1c(Sc2ccc(C(=O)N[C@@H](CCC(=O)O)C(=O)O)cc2)[nH]c2nc(N)nc(N)c12 [Compound 3, N-[4-[(2,4-Diamino-5-propyl-7H-pyrrolo[2,3-d]pyrimidin-6-yl)sulfanyl]benzoyl]-L-glutamic Acid]	–	–	inhibition of hTS, in words (human TS): poor inhibitor; inhibition of E. coli TS, in words (E. coli TS): poor inhibitor; inhibition of T. gondii TS, in words (T. gondii TS): moderate inhibition; inhibition of hDHFR, in words (human DHFR): good inhibitor; inhibition of E. coli DHFR, in words (E. coli DHFR): good inhibitor; inhibition of T. gondii DHFR, in words (T. gondii DHFR [2]): good inhibitor; potency rank against T. gondii DHFR, in words (T. gondii DHFR [1]): three most potent compounds; GI50 (60 tumor cell lines): < 1000 nM; GI50 (60 tumor cell lines; read-out: GI50 tumor cells in culture): ≤ 100 nM; GI50 (SW-620): 1210 nM; GI50 (HCT 15): > 100000 nM
CN(Cc1cnc2nc(N)nc(N)c2n1)c1ccc(C(=O)N[C@@H](CCC(=O)O)C(=O)O)cc1 [MTX, methotrexate, reference compound]	–	–	potency rank against T. gondii DHFR, in words (T. gondii DHFR [1]): three most potent compounds; EC50 [3]: 12.5 nM
CC(C)c1c(Sc2c(Cl)cccc2Cl)[nH]c2nc(N)nc(N)c12 [Compound 19, 2,4-Diamino-5-isopropyl-6-(2′,6′-dichlorophenylsulfanyl)-7H-pyrrolo[2,3-d]pyrimidine]	> 2200	0	–
CCCc1c(Sc2ccc(OC)c(OC)c2)[nH]c2nc(N)nc(N)c12 [Compound 16, 2,4-Diamino-5-propyl-6-(3′,4′-dimethoxyphenylsulfanyl)-7H-pyrrolo[2,3-d]pyrimidine]	> 11000	0	–
CC(C)c1c(Sc2ccc3ccccc3c2)[nH]c2nc(N)nc(N)c12 [Compound 26, 2,4-Diamino-5-isopropyl-6-(2′-napthylsulfanyl)-7H-pyrrolo[2,3-d]pyrimidine]	> 2400	0	–
